Paper PMC3474704 (Clinical cancer research : an official journal of the …, 2012)
Like-named read-outs stand apart in the source and are kept apart here.

What was measured:
[1] = system: HT29 colon carcinoma cells; test: Cell cycle analysis; assay type: cell-based, human
[2] = Plasma protein binding by ultra filtration; assay type: in vitro ADME; conditions: mouse
[3] = system: HT29 tumors; test: HT29 xenograft growth delay, combination with irinotecan; assay type: in vivo, mouse; conditions: for growth delay: HT29 tumors
[4] = system: Calu6 xenografts; test: Calu6 xenograft growth delay, combination with gemcitabine; assay type: in vivo, mouse
[5] = system: SW620
[6] = system: MiaPaCa-2
[7] = system: Calu6; test: cells; conditions: Homo sapiens, Calu-6, 96 h
[8] = target: recombinant human CHK1 (Homo sapiens, UniProt O14757); test: biochemical
recombinant human CHK1, sequence (O14757 whole entry): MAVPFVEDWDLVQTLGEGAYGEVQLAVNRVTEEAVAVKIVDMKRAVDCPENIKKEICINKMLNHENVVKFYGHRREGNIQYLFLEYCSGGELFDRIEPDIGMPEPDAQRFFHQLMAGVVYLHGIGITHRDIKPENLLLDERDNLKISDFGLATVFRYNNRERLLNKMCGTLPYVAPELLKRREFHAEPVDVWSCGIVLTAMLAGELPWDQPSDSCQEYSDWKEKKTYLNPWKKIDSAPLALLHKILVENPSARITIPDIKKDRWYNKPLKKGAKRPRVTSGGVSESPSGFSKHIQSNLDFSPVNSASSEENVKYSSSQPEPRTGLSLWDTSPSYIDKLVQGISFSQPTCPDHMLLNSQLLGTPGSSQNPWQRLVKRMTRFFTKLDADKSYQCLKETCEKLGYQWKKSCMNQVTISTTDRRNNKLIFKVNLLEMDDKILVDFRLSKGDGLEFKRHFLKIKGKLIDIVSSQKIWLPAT

[9] = 0.5μM for 23h following etoposide 25μM × 1h

COc1cc(Nc2cnc(C#N)c(O[C@H](C)CN(C)C)n2)ncc1-c1cnn(C)c1 [CCT244747]
further cells accumulating in G2/M ([1]; 0.1μM with SN38 20nM × 24h): 33.8% | reduction of SN38-induced S-phase arrest ([1]; 0.1μM with SN38 20nM × 24h): 42.3% | increase in G1 [1, 9]: 9.6% | loss of G2/M cells [1, 9]: 30% | S' population (S-phase cells not incorporating BrdU) ([1]; 0.5μM for 23h following etoposide, increased from 1.2): 17.7% | effect alone on the cell cycle ([1]; alone, up to 0.5μM × 24h): minimal effects | S'-phase cells ([1]; increasing concentrations with SN38 20nM × 24h, increased from 5): 42.1% | fraction unbound at 1 h, 10 μM [2]: 0.244 | growth delay ([3]; 150mg/kg p.o. added to irinotecan 25mg/kg i.p.): 13.5 days | growth delay ([3]; 150mg/kg p.o. alone): 0.3 days | nadir of body weight loss ([3]; combination with irinotecan, day 10): 1.3% | growth delay ([4]; Calu6 xenografts, 75mg/kg p.o. added to gemcitabine 100mg/kg i.v.): 15.9 days | antitumor activity of each agent alone ([4]; Calu6 xenografts, CCT244747 75mg/kg p.o. or gemcitabine 100mg/kg i.v. alone): minimal activity | increase in growth delay, combination versus gemcitabine alone ([4]; Calu6 xenografts, P<0.001): 8.7 days | nadir of body weight loss ([4]; combination with gemcitabine, day 8): 5.4% | Potentiation Index (PI) ([5]; 5FU): 4.9±0.8 (n=3) | Potentiation Index (PI) ([5]; 5FdU): 47±14 (n=3) | Potentiation Index (PI) ([5]; CDDP): 4.2±0.87 (n=3) | Potentiation Index (PI) ([5]; Etop): 4.9±2.2 (n=3) | Potentiation Index (PI) ([5]; Gem): 12.2±2.7 (n=5) | Potentiation Index (PI) ([5]; IR +1h): 4.9±1.6 (n=4) | Potentiation Index (PI) ([5]; IR −1h): 4.5±1.2 (n=4) | Potentiation Index (PI) ([5]; SN38): 2.6±0.6 (n=3) | Potentiation Index (PI) ([6]; Gem): 16±6.3 (n=5) | Potentiation Index (PI) ([6]; SN38): 5.0±0.82 (n=5) | GI50 [7]: 330 ± 51 nM | IC50 [8]: 8 nM
